Measured values: ChEMBL document CHEMBL3580557, “Anti-inflammatory Terpenoids from the Leaves and Twigs of Dysoxylum gotadhora” (J Nat Prod, 2015)

What was measured:
RAW264.7 [1] = test: Antiinflammatory activity in mouse RAW264.7 cells assessed as inhibition of LPS-induced nitric oxide production at 3.1 uM after 24 hrs by Griess assay relative to control; type: functional; conditions: RAW264.7, 24 h
RAW264.7 [2] = test: Antiinflammatory activity in mouse RAW264.7 cells assessed as inhibition of LPS-induced nitric oxide production at 6.3 uM after 24 hrs by Griess assay relative to control; type: functional; conditions: RAW264.7, 24 h
RAW264.7 [3] = test: Antiinflammatory activity in mouse RAW264.7 cells assessed as inhibition of LPS-induced nitric oxide production at 12.5 uM after 24 hrs by Griess assay relative to control; type: functional; conditions: RAW264.7, 24 h
RAW264.7 [4] = test: Antiinflammatory activity in mouse RAW264.7 cells assessed as inhibition of LPS-induced nitric oxide production at 25 uM after 24 hrs by Griess assay relative to control; type: functional; conditions: RAW264.7, 24 h
RAW264.7 [5] = test: Antiinflammatory activity in mouse RAW264.7 cells assessed as inhibition of LPS-induced nitric oxide production at 50 uM after 24 hrs by Griess assay relative to control; type: functional; conditions: RAW264.7, 24 h
RAW264.7 [6] = test: Antiinflammatory activity in mouse RAW264.7 cells assessed as inhibition of LPS-induced nitric oxide production after 24 hrs by Griess assay; type: functional, cell-based; conditions: RAW264.7, 24 h
RAW264.7 [7] = test: Cytotoxicity against mouse RAW264.7 cells assessed as cell viability after 16 hrs by MTT assay; type: cell-based; conditions: raw264.7, 16 h

Row | SMILES | inhibition at 3.1 µM (RAW264.7 [1]) | inhibition at 6.3 µM (RAW264.7 [2]) | inhibition at 12.5 µM (RAW264.7 [3]) | inhibition at 25 µM (RAW264.7 [4]) | inhibition at 50 µM (RAW264.7 [5]) | IC50 (RAW264.7 [6]) | Activity (RAW264.7 [7])
1 | CC(C)(O)[C@H]1OC[C@@H]([C@H]2CC[C@@]3(C)[C@@H]4CC[C@H]5C(C)(C)C(=O)CC[C@@]56C[C@@]46CC[C@]23C)C[C@@H]1O | 12.5% | 18.5% | 23.2% | 49% | 76.2% | 25.5 µM | Non-toxic
2 | CC1(C)OC[C@@H]([C@H]2CC[C@@]3(C)[C@@H]4CC[C@H]5C(C)(C)C(=O)CC[C@@]56C[C@@]46CC[C@]23C)C[C@@H](O)[C@@H]1O | 11.3% | 4.5% | 13.5% | 28.3% | 58.9% | 41.5 µM | Non-toxic
3 | C[C@H](C[C@@H](O)[C@H](O)C(C)(C)O)[C@H]1CC[C@@]2(C)[C@@H]3CC[C@H]4C(C)(C)C(=O)CC[C@@]45C[C@@]35CC[C@]12C | 12.8% | 17.9% | 23.8% | 48.5% | 79.1% | 27.4 µM | Non-toxic
4 | C=C[C@@]1(C)CC(=O)[C@H]2[C@@H](CC[C@H]3C(C)(C)[C@@H](O)CC[C@]23C)C1 | 19.8% | 25.6% | 41.5% | 63.8% | 92.4% | 14.5 µM | Non-toxic
5 | COC(=O)/C=C(\C)CC[C@@]1(C)[C@H](C)CC[C@@]2(C)C(C)=CC(=O)C[C@H]12 | 19.4% | 19.9% | 24.8% | 35.3% | 56.6% | 45.2 µM | Non-toxic
6 | COc1ccc2c(c1)c(CC(=O)O)c(C)n2C(=O)c1ccc(Cl)cc1 [INDOMETHACIN] | 21.5% | 24.5% | 38.5% | 44.3% | 57.9% | – | –
